{"source": "patent US20260285850A1", "about": "“SUBSTITUTED OXAZOLIDINONES AND IMIDAZOLINONES AS HERBICIDES” (FMC CORPORATION, priority 2023, published 2026)", "format_in_all_cases": "in vivo", "key": {"[1]": {"tested_on": "barnyardgrass (Echinochloa crus-galli)", "assay": "Test A preemergence soil spray, visual injury rating 0-100", "settings": "10 days", "summary_of_the_method": "(§1)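 Rating: visual, day 10, untreated plants as reference, 0 no effect to 100 full control. Plants were in loam-sand and were treated either preemergence via directed soil spray or postemergence at the one- to two-leaf stage.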"}, "[2]": {"tested_on": "blackgrass (Alopecurus myosuroides)", "assay": "Test A preemergence soil spray, visual injury rating 0-100", "settings": "10 days", "summary_of_the_method": "as §1"}, "corn (Zea mays) [3]": {"tested_on": "corn (Zea mays)", "assay": "Test A preemergence soil spray, visual injury rating 0-100", "settings": "10 days", "summary_of_the_method": "as §1"}, "[4]": {"tested_on": "green foxtail (Setaria viridis)", "assay": "Test A preemergence soil spray, visual injury rating 0-100", "settings": "10 days", "summary_of_the_method": "as §1"}, "kochia (Bassia scoparia) [5]": {"tested_on": "kochia (Bassia scoparia)", "assay": "Test A preemergence soil spray, visual injury rating 0-100", "settings": "10 days", "summary_of_the_method": "as §1"}, "[6]": {"tested_on": "oat, wild (wild oat, Avena fatua)", "assay": "Test A preemergence soil spray, visual injury rating 0-100", "settings": "10 days", "summary_of_the_method": "as §1"}, "[7]": {"tested_on": "palmer (palmer amaranth, palmer pigweed, Amaranthus palmeri)", "assay": "Test A preemergence soil spray, visual injury rating 0-100", "settings": "10 days", "summary_of_the_method": "as §1"}, "[8]": {"tested_on": "ragweed (common ragweed, Ambrosia artemisiifolia)", "assay": "Test A preemergence soil spray, visual injury rating 0-100", "settings": "10 days", "summary_of_the_method": "as §1"}, "[9]": {"tested_on": "ryegrass, Italian (italian ryegrass, Lolium multiflorum)", "assay": "Test A preemergence soil spray, visual injury rating 0-100", "settings": "10 days", "summary_of_the_method": "as §1"}, "soybean (Glycine max) [10]": {"tested_on": "soybean (Glycine max)", "assay": "Test A preemergence soil spray, visual injury rating 0-100", "settings": "10 days", "summary_of_the_method": "as §1"}, "[11]": {"tested_on": "wheat (Triticum aestivum)", "assay": "Test A preemergence soil spray, visual injury rating 0-100", "settings": "10 days", "summary_of_the_method": "as §1"}, "[12]": {"tested_on": "barnyardgrass (Echinochloa crus-galli)", "assay": "Test A postemergence application, visual injury rating 0-100", "summary_of_the_method": "as §1"}, "[13]": {"tested_on": "blackgrass (Alopecurus myosuroides)", "assay": "Test A postemergence application, visual injury rating 0-100", "summary_of_the_method": "as §1"}, "corn (Zea mays) [14]": {"tested_on": "corn (Zea mays)", "assay": "Test A postemergence application, visual injury rating 0-100", "summary_of_the_method": "as §1"}, "[15]": {"tested_on": "green foxtail (Setaria viridis)", "assay": "Test A postemergence application, visual injury rating 0-100", "summary_of_the_method": "as §1"}, "[16]": {"tested_on": "horseweed (Erigeron canadensis)", "assay": "Test A postemergence application, visual injury rating 0-100", "summary_of_the_method": "as §1"}, "kochia (Bassia scoparia) [17]": {"tested_on": "kochia (Bassia scoparia)", "assay": "Test A postemergence application, visual injury rating 0-100", "summary_of_the_method": "as §1"}, "[18]": {"tested_on": "oat, wild (wild oat, Avena fatua)", "assay": "Test A postemergence application, visual injury rating 0-100", "summary_of_the_method": "as §1"}, "[19]": {"tested_on": "palmer (palmer amaranth, palmer pigweed, Amaranthus palmeri)", "assay": "Test A postemergence application, visual injury rating 0-100", "summary_of_the_method": "as §1"}, "[20]": {"tested_on": "ragweed (common ragweed, Ambrosia artemisiifolia)", "assay": "Test A postemergence application, visual injury rating 0-100", "summary_of_the_method": "as §1"}, "[21]": {"tested_on": "ryegrass, Italian (italian ryegrass, Lolium multiflorum)", "assay": "Test A postemergence application, visual injury rating 0-100", "summary_of_the_method": "as §1"}, "soybean (Glycine max) [22]": {"tested_on": "soybean (Glycine max)", "assay": "Test A postemergence application, visual injury rating 0-100", "summary_of_the_method": "as §1"}, "[23]": {"tested_on": "wheat (Triticum aestivum)", "assay": "Test A postemergence application, visual injury rating 0-100", "summary_of_the_method": "as §1"}, "[24]": {"tested_on": "barnyardgrass (Echinochloa crusgalli)", "assay": "Test B flooded paddy test, visual plant response rating 0-100", "settings": "250 g ai/ha, Flood, applied to paddy water, evaluated after 13 days", "summary_of_the_method": "(§2)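 Visual evaluation after 13 days. Water-applied treatment, 3 cm flood depth held constant, plants at 2-leaf stage at treatment.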"}, "[25]": {"tested_on": "ducksalad (Heteranthera limosa)", "assay": "Test B flooded paddy test, visual plant response rating 0-100", "settings": "250 g ai/ha, Flood, applied to paddy water, evaluated after 13 days", "summary_of_the_method": "as §2"}, "rice (Oryza sativa)": {"tested_on": "rice (Oryza sativa)", "assay": "Test B flooded paddy test, visual plant response rating 0-100", "settings": "250 g ai/ha, Flood, applied to paddy water, evaluated after 13 days", "summary_of_the_method": "as §2"}, "[26]": {"tested_on": "sedge, umbrella (small-flower umbrella sedge, Cyperus difformis)", "assay": "Test B flooded paddy test, visual plant response rating 0-100", "settings": "250 g ai/ha, Flood, applied to paddy water, evaluated after 13 days", "summary_of_the_method": "as §2"}, "[27]": {"settings": "62 g ai/ha, 0 = no effect, 100 = complete control"}, "[28]": {"settings": "62 g ai/ha, postemergence, 10 days, 0 = no effect, 100 = complete control"}, "[29]": {"settings": "Postemergence, 16 g ai/ha, greenhouse 10 days, 0 no effect, 100 complete control"}}, "data": [{"smiles": "COC(=O)COC(=O)C1=CCC(NC(=O)C2(C)CN(c3cc(Cl)cc(Cl)c3)C(=O)O2)C1", "note": "(centres unmarked) [Compound 109]", "values": [{"measurement": "Barnyardgrass plant response rating", "setting": "[1]; 16 g ai/ha, 0 to 100 scale", "result": 0}, {"measurement": "Barnyardgrass plant response rating (0-100)", "setting": "[1]; [27]", "result": 0}, {"measurement": "Blackgrass plant response rating", "setting": "[2]; 16 g ai/ha, 0 to 100 scale", "result": 0}, {"measurement": "Blackgrass plant response rating (0-100)", "setting": "[2]; [27]", "result": 0}, {"measurement": "Corn plant response rating", "setting": "corn (Zea mays) [3]; 16 g ai/ha, 0 to 100 scale", "result": 0}, {"measurement": "Corn plant response rating (0-100)", "setting": "corn (Zea mays) [3]; [27]", "result": 0}, {"measurement": "Foxtail, Green plant response rating", "setting": "[4]; 16 g ai/ha, 0 to 100 scale", "result": 0}, {"measurement": "Foxtail, Green plant response rating (0-100)", "setting": "[4]; [27]", "result": 0}, {"measurement": "Kochia plant response rating", "setting": "kochia (Bassia scoparia) [5]; 16 g ai/ha, 0 to 100 scale", "result": 0}, {"measurement": "Kochia plant response rating (0-100)", "setting": "kochia (Bassia scoparia) [5]; [27]", "result": 0}, {"measurement": "Oat, Wild plant response rating", "setting": "[6]; 16 g ai/ha, 0 to 100 scale", "result": 0}, {"measurement": "Oat, Wild plant response rating (0-100)", "setting": "[6]; [27]", "result": 0}, {"measurement": "Pigweed, Palmer plant response rating", "setting": "[7]; 16 g ai/ha, 0 to 100 scale", "result": 0}, {"measurement": "Pigweed, Palmer plant response rating (0-100)", "setting": "[7]; [27]", "result": 0}, {"measurement": "Ragweed plant response rating", "setting": "[8]; 16 g ai/ha, 0 to 100 scale", "result": 0}, {"measurement": "Ragweed plant response rating (0-100)", "setting": "[8]; [27]", "result": 0}, {"measurement": "Ryegrass, Italian plant response rating", "setting": "[9]; 16 g ai/ha, 0 to 100 scale", "result": 0}, {"measurement": "Ryegrass, Italian plant response rating (0-100)", "setting": "[9]; [27]", "result": 0}, {"measurement": "Soybean plant response rating", "setting": "soybean (Glycine max) [10]; 16 g ai/ha, 0 to 100 scale", "result": 0}, {"measurement": "Soybean plant response rating (0-100)", "setting": "soybean (Glycine max) [10]; [27]", "result": 0}, {"measurement": "Wheat plant response rating", "setting": "[11]; 16 g ai/ha, 0 to 100 scale", "result": 0}, {"measurement": "Wheat plant response rating (0-100)", "setting": "[11]; [27]", "result": 0}, {"measurement": "Barnyardgrass plant response rating (0-100)", "setting": "[12]; [28]", "result": 20}, {"measurement": "Barnyardgrass plant response rating (0 to 100 scale)", "setting": "[12]; [29]", "result": 0}, {"measurement": "Blackgrass plant response rating (0-100)", "setting": "[13]; [28]", "result": 30}, {"measurement": "Blackgrass plant response rating (0 to 100 scale)", "setting": "[13]; [29]", "result": 0}, {"measurement": "Corn plant response rating (0-100)", "setting": "corn (Zea mays) [14]; [28]", "result": 0}, {"measurement": "Corn plant response rating (0 to 100 scale)", "setting": "corn (Zea mays) [14]; [29]", "result": 0}, {"measurement": "Foxtail, Green plant response rating (0-100)", "setting": "[15]; [28]", "result": 0}, {"measurement": "Foxtail, Green plant response rating (0 to 100 scale)", "setting": "[15]; [29]", "result": 0}, {"measurement": "Horseweed plant response rating (0-100)", "setting": "[16]; [28]", "result": 20}, {"measurement": "Horseweed plant response rating (0 to 100 scale)", "setting": "[16]; [29]", "result": 0}, {"measurement": "Kochia plant response rating (0-100)", "setting": "kochia (Bassia scoparia) [17]; [28]", "result": 0}, {"measurement": "Kochia plant response rating (0 to 100 scale)", "setting": "kochia (Bassia scoparia) [17]; [29]", "result": 0}, {"measurement": "Oat, Wild plant response rating (0-100)", "setting": "[18]; [28]", "result": 0}, {"measurement": "Oat, Wild plant response rating (0 to 100 scale)", "setting": "[18]; [29]", "result": 0}, {"measurement": "Pigweed, Palmer plant response rating (0-100)", "setting": "[19]; [28]", "result": 40}, {"measurement": "Pigweed, Palmer plant response rating (0 to 100 scale)", "setting": "[19]; [29]", "result": 0}, {"measurement": "Ragweed plant response rating (0-100)", "setting": "[20]; [28]", "result": 0}, {"measurement": "Ragweed plant response rating (0 to 100 scale)", "setting": "[20]; [29]", "result": 0}, {"measurement": "Ryegrass, Italian plant response rating (0-100)", "setting": "[21]; [28]", "result": 0}, {"measurement": "Ryegrass, Italian plant response rating (0 to 100 scale)", "setting": "[21]; [29]", "result": 0}, {"measurement": "Soybean plant response rating (0-100)", "setting": "soybean (Glycine max) [22]; [28]", "result": 0}, {"measurement": "Soybean plant response rating (0 to 100 scale)", "setting": "soybean (Glycine max) [22]; [29]", "result": 0}, {"measurement": "Wheat plant response rating (0-100)", "setting": "[23]; [28]", "result": 0}, {"measurement": "Wheat plant response rating (0 to 100 scale)", "setting": "[23]; [29]", "result": 0}, {"measurement": "Plant response rating, Barnyardgrass (0 to 100 scale, 0 is no effect and 100 is complete control)", "setting": "[24]", "result": 0}, {"measurement": "Plant response rating, Ducksalad (0 to 100 scale, 0 is no effect and 100 is complete control)", "setting": "[25]", "result": 0}, {"measurement": "Plant response rating, Rice (0 to 100 scale, 0 is no effect and 100 is complete control)", "setting": "rice (Oryza sativa)", "result": 0}, {"measurement": "Plant response rating, Sedge, Umbrella (0 to 100 scale, 0 is no effect and 100 is complete control)", "setting": "[26]", "result": 0}]}]}
